Results on seven compounds are retold here after PubChem BioAssay (NCI).

The structures appear in SMILES notation.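 Assay format: 96-well plates, 48-hour exposure. The concentration for 50% growth inhibition is given as GI50. TGI: total growth inhibition.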

Test systems include A549 NSCLC; K-562 leukemia; MALME-3M melanoma; NCI/ADR-RES ovarian; OVCAR-3 ovarian; OVCAR-8 ovarian; PC-3 prostate; RXF 393 renal; SK-MEL-28 melanoma; TK-10 renal.
Common to all, as to assay: NCI anticancer screen, dose series, 48 h

Take `COC(=O)c1ccc(NC(N)=NCCC(C)(C)c2ccc(C(F)(F)F)cc2)nc1`: the GI50 in the test with A549 NSCLC was 4.83 µM; in the test with K-562 leukemia, 1.3 µM; in the test with MALME-3M melanoma it was 1.7 µM; with NCI/ADR-RES ovarian, 2.35 µM; with OVCAR-3 ovarian, 1.78 µM; in the test on OVCAR-8 ovarian, 2.04 µM. Moreover, the GI50 in the test with PC-3 prostate is 3.91 µM; with RXF 393 renal it was 2.18 µM; in the test on SK-MEL-28 melanoma, 1.64 µM; with TK-10 renal, 4.75 µM. In addition, the TGI in the test with A549 NSCLC stood at 17.2 µM; in the test with K-562 leukemia, 3.72 µM; with MALME-3M melanoma, 3.37 µM; with NCI/ADR-RES ovarian, 6.03 µM; with OVCAR-3 ovarian, 4.08 µM; with OVCAR-8 ovarian, 4.63 µM. In addition, the TGI with PC-3 prostate came out at 15.5 µM; with RXF 393 renal, 5.06 µM; with SK-MEL-28 melanoma it was 3.23 µM; in the test with TK-10 renal, 17.6 µM.
For the compound `Oc1cn(-c2ccc(Cl)cc2)nc1-c1n[nH]c(=S)n1-c1ccc(F)cc1`, the GI50 with A549 NSCLC is 13.2 µM; in the test with K-562 leukemia it was 12.6 µM; with MALME-3M melanoma, 25.9 µM; in the test with NCI/ADR-RES ovarian it was 15.4 µM; with OVCAR-3 ovarian it was 22 µM; with OVCAR-8 ovarian, 27.3 µM. Also, the GI50 was 14.8 µM with PC-3 prostate, 28 µM with RXF 393 renal, 20.4 µM in the test with SK-MEL-28 melanoma and 28.1 µM in the test with TK-10 renal. Moreover, the TGI is 56 µM in the test on A549 NSCLC; over 100 µM in the test on K-562 leukemia; over 100 µM in the test with MALME-3M melanoma; 54.9 µM in the test on NCI/ADR-RES ovarian; over 100 µM in the test with OVCAR-3 ovarian; over 100 µM with OVCAR-8 ovarian. Also, the TGI with PC-3 prostate, in the test on RXF 393 renal, in the test on SK-MEL-28 melanoma and with TK-10 renal was over 100 µM throughout.
For the compound `CCc1ccc(Oc2c(-c3ccc(OCc4ccc(Cl)cc4)cc3O)nn(C)c2C(F)(F)F)cc1`, the GI50 is 0.514 µM in the test with A549 NSCLC; 0.39 µM with K-562 leukemia; 1.14 µM with MALME-3M melanoma; 0.905 µM in the test with NCI/ADR-RES ovarian; 0.334 µM with OVCAR-3 ovarian; 1.35 µM with OVCAR-8 ovarian. Moreover, the GI50 is 0.358 µM in the test on PC-3 prostate, 1.14 µM with RXF 393 renal, 1.26 µM in the test on SK-MEL-28 melanoma and 1.23 µM with TK-10 renal. The TGI in the test with A549 NSCLC was 1.95 µM; in the test on K-562 leukemia, 1.58 µM; in the test on MALME-3M melanoma it was 2.6 µM; with NCI/ADR-RES ovarian it was 4.47 µM; in the test with OVCAR-3 ovarian, 1.13 µM; with OVCAR-8 ovarian, 3.79 µM. Besides, the TGI came out at 1.68 µM with PC-3 prostate, 2.59 µM in the test on RXF 393 renal, 2.91 µM with SK-MEL-28 melanoma and 3.18 µM with TK-10 renal.
Turning to `CC(=O)Nc1cccc(C#Cc2cncnc2Nc2ccc(OCc3cccc(F)c3)c(Cl)c2)c1`, the GI50 in the test on A549 NSCLC was 5.87 µM; in the test with K-562 leukemia, 8.96 µM; in the test on MALME-3M melanoma it was 12.5 µM; with NCI/ADR-RES ovarian, 6.86 µM; in the test on OVCAR-3 ovarian it was 7.53 µM; with OVCAR-8 ovarian, 6.35 µM. Besides, the GI50 is 8.49 µM in the test on PC-3 prostate, 0.753 µM in the test with RXF 393 renal, 17.1 µM in the test with SK-MEL-28 melanoma and 1.6 µM in the test on TK-10 renal. The TGI with A549 NSCLC is over 25 µM; in the test on K-562 leukemia, over 25 µM; with MALME-3M melanoma it was over 25 µM; with NCI/ADR-RES ovarian it was over 25 µM; in the test with OVCAR-3 ovarian, over 25 µM; in the test on OVCAR-8 ovarian it was 24.9 µM. Also, the TGI was over 25 µM in the test with PC-3 prostate, over 15.1 µM in the test on RXF 393 renal, over 25 µM in the test on SK-MEL-28 melanoma and 16.3 µM in the test with TK-10 renal.
Turning to `O=C1c2cccc3c(N4CCOCC4)ccc(c23)C(=O)N1CCN1CCN(CCCCCN2CCN(CCN3C(=O)c4cccc5c(N6CCOCC6)ccc(c45)C3=O)CC2)CC1`, the GI50 is over 100 µM with A549 NSCLC; 36 µM in the test with K-562 leukemia; over 100 µM in the test on MALME-3M melanoma; over 100 µM in the test with NCI/ADR-RES ovarian; 84.5 µM in the test with OVCAR-3 ovarian; 91 µM with OVCAR-8 ovarian. For the same compound, the GI50 in the test with PC-3 prostate is over 100 µM; in the test on RXF 393 renal it was 59.8 µM; in the test with SK-MEL-28 melanoma it was over 100 µM; in the test on TK-10 renal, over 100 µM. The TGI in the test on A549 NSCLC, in the test on K-562 leukemia, in the test with MALME-3M melanoma, in the test on NCI/ADR-RES ovarian, in the test on OVCAR-3 ovarian and in the test on OVCAR-8 ovarian was over 100 µM throughout. The TGI in the test on PC-3 prostate, with RXF 393 renal, in the test with SK-MEL-28 melanoma and in the test with TK-10 renal was over 100 µM throughout.
For the compound `CC(=O)C1(C(=O)C(=[N+]=[N-])S(=O)(=O)c2ccccc2)CC1`, the TGI with A549 NSCLC, with K-562 leukemia, with MALME-3M melanoma, in the test with NCI/ADR-RES ovarian, in the test on OVCAR-3 ovarian and in the test on OVCAR-8 ovarian was over 100 µM in each case. The TGI in the test with PC-3 prostate, in the test with RXF 393 renal, in the test on SK-MEL-28 melanoma and with TK-10 renal was over 100 µM in each case.
With `CN(C)C1C(=O)C(C(N)=O)=C(O)C2(O)C(=O)C3=C(O)c4c(O)cccc4C(C)(O)C3CC12.[Cl][Sb]([Cl])[Cl]` (stereo not given), the GI50 in the test on A549 NSCLC was 3.47 µM; in the test with K-562 leukemia, 3.26 µM; in the test on MALME-3M melanoma it was 1.94 µM; with NCI/ADR-RES ovarian it was 3.19 µM; with OVCAR-3 ovarian, 3.62 µM; in the test with OVCAR-8 ovarian, 3.37 µM. In addition, the GI50 with PC-3 prostate was 3.05 µM; with RXF 393 renal, 3.03 µM; in the test with SK-MEL-28 melanoma it was 2.81 µM; with TK-10 renal it was 3.85 µM. Also, the TGI came out at 13.8 µM in the test on A549 NSCLC; 11.2 µM with K-562 leukemia; 4.6 µM in the test with MALME-3M melanoma; 16.6 µM in the test with NCI/ADR-RES ovarian; 12.4 µM in the test on OVCAR-3 ovarian; 13.1 µM in the test with OVCAR-8 ovarian. Further, the TGI in the test on PC-3 prostate turned out to be 9.92 µM; in the test with RXF 393 renal, 10.7 µM; with SK-MEL-28 melanoma it was 8.57 µM; in the test with TK-10 renal it was 14.3 µM.
